Reference: publication PMC12163684, “Gunacins: Novel Benzo[g]chromene Derivatives from the Fungus Exobasidium sp. and Their Potent Anti-Leishmania and Trypanosoma Activities” (ACS Omega, 2025)
Where two headings read alike, the source gives them in different places.

Key:
[1] = test system: HeLa adenocarcinoma cell line; experiment: Effect on cell morphology, fluorescence microscopy (MitoTracker Red CMXRos, Phalloidin, DAPI); assay type: cell-based; details: 24 h; for concentration at which effects on morphology / mitochondrial signal were observed, HeLa cells: tested at 5, 25, 50, 100, 125 μM
Procedure: (§1) MDCK and RAT cells were cultured in DMEM with 10% FBS at 37 °C in a 5% CO2 atmosphere as described previously. , To assess the toxic effects of the compounds on proliferating cells, cells were seeded in 24-well plates for 24 h to reach ∼15% confluence, and cells were treated in triplicate with increasing concentrations of the isolated compounds for an additional 24 h. Cells were washed with 1× PBS, fixed in staining solution (0.5% crystal violet, 20% methanol) for 10 min, and gently washed five times in 1× PBS. The fixed cells were then dissolved in lysis solution (0.1 M sodium citrate, 25% ethanol, pH 4.2) for 30 min, transferred to a 96-well plate in H2O, and the OD^590 was determined. EC50 values were determined using GraphPad Prism software and the dose–response fit equation. The EC50 values were determined from two independent experiments. Additionally, the impact of the isolated substances on the morphology of the HeLa adenocarcinoma cell line and primary human skin fibroblasts was examined by using fluorescence microscopy. Cells were cultured in DME medium supplemented with 10% FCS (Gibco, Invitrogen, Carlsbad, USA) on glass coverslips in 24-well plates until reaching approximately 50% confluence. The cells were treated with varying concentrations of isolated compounds dissolved in DMSO. Wells containing DMEM with DMSO served as the negative control. After 24 h cultivation, the cells were incubated with MitoTracker Red CMXRos (10 min) to label mitochondria, then fixed with 3.7% paraformaldehyde in PBS (20 min, room temperature), permeabilized with 0.1% Triton X-100 in PBS, and blocked with 1% BSA in PBS. The cells were then stained with Phalloidin-Alexa Fluor488 conjugate. All fluorescence reagents were purchased from Molecular Probes, Invitrogen, Carlsbad, CA, USA. Nuclei were stained with Fluoroshield DAPI (Sigma-Aldrich), and cells were examined using an IX71 microscope equipped with a DP70 camera and a 40× objective. Assays were performed at concentrations of 5, 25, 50, 100, and 125 μM.

[2] = test system: primary human skin fibroblasts; experiment: as above; assay type: cell-based; details: 24 h; for concentration at which effects on morphology / mitochondrial signal were observed, fibroblasts: tested at 5, 25, 50, 100, 125 μM
Procedure: as §1

RTL-W1 cell line = experiment: Cell viability assay with fluorescent indicators AB, CFDA-AM and NR; assay type: cell-based, rainbow trout (Oncorhynchus mykiss); details: Oncorhynchus mykiss, 24 h exposure, n.d. = activity not detected at highest tested concentration 150 μM
Procedure: Cell viability assay was determined on cell line RTL-W1 (obtained from Eawag, Switzerland; liver tissue) of rainbow trout (Oncorhynchus mykiss) according to the modified procedure of Dayeh (2005). A combination of three fluorescent indicators, alamarBlue (AB), 5-carboxyfluorescein diacetate acetoxymethyl ester (CFDA-AM), and NR was used to assess different mechanisms of toxic action, evaluate the general cellular response and increase the sensitivity of the cytotoxicity tests. […] After 24 h of incubation in microculturing plates, the cells were exposed to concentration series of isolated compounds in 0.5% DMSO for another 24 h. After the exposition, the solutions were removed from individual wells followed by the washing step and the addition of 100 μL of a dye solution containing 0.625% AB and 0.4 μM CFDA-AM in […]. The cells were incubated at room temperature for 30 min, and the fluorescence was measured at excitation/emission wavelengths of 535/590 nm for the AB assay and 485/535 nm for the CFDA-AM assay. Afterward, the dye solution was removed, the cells were rinsed, and 100 μL of the NR solution was added (0.03 mg/mL in […]). After 60 min of incubation, the cells were rinsed twice, and NR was extracted from the cells using 150 μL of a solution consisting of 1% (v/v) glacial acetic acid in 50% (v/v) ethanol. The content of each well was repeatedly homogenized using a pipet, and the fluorescence was measured at excitation/emission wavelengths of 535/630 nm.

[3] = Alamar Blue, cellular metabolic activity, read-out: EC50 ± SEM RTL-W1 (AB)
[4] = CFDA-AM, cell membrane integrity, read-out: EC50 ± SEM RTL-W1 (CFDA)
[5] = Neutral Red, lysosomal membrane integrity, read-out: EC50 ± SEM RTL-W1 (NR)

| Structure (SMILES) | concentration causing complete loss of live adherent cells, HeLa cells [1] | concentration at which effects on morphology / mitochondrial signal were observed, HeLa cells [1] | concentration at which effects on morphology / mitochondrial signal were observed, fibroblasts [2] | EC50 (RTL-W1 cell line; [3]) | EC50 (RTL-W1 cell line; [4]) | EC50 (RTL-W1 cell line; [5]) | concentration causing complete loss of live adherent cells, fibroblasts [2] |
| --- | --- | --- | --- | --- | --- | --- | --- |
| COc1cc(O)c2c(c1)C(=O)C1=C(C2=O)[C@H](O)[C@@H](O)[C@@H](C)O1 (relative stereo) [Compound 3, (2R,3R,4S)-3,4,6-trihydroxy-8-methoxy-2-methyl-3,4-dihydro-2H-benzo[g]chromene-5,10-dione] | 125 µM | 25 μM | 125 μM | – | – | – | – |
| COc1cc(O)c2c(c1)C(=O)C1=C(C2=O)[C@@H](O)[C@@H](OC(C)=O)[C@@H](C)O1 [Compound 5, (2R,3R,4R)-4,6-dihydroxy-8-methoxy-2-methyl-5,10-dioxo-3,4,5,10-tetrahydro-2H-benzo[g]chromen-3-yl acetate] | – | 125 μM | 5 μM | 2500 ± 300 nM | 2100 ± 100 nM | 900 ± 100 nM | – |
| COc1cc(O)c2c(c1)C(=O)C1=C(C2=O)[C@@H](OC(C)=O)[C@@H](O)[C@@H](C)O1 [Compound 1, (2R,3S,4R)-3,6-dihydroxy-8-methoxy-2-methyl-5,10-dioxo-3,4,5,10-tetrahydro-2H-benzo[g]chromen-4-yl acetate] | – | 125 μM | 5 μM | 500 nM | 800 ± 100 nM | 300 nM | – |
| COc1cc(O)c2c(c1)C(=O)C1=C(C[C@@H](OC(C)=O)[C@@H](C)O1)C2=O [Compound 7, (2R,3R)-6-hydroxy-8-methoxy-2-methyl-5,10-dioxo-3,4,5,10-tetrahydro-2H-benzo[g]chromen-3-yl acetate] | – | > 125 μM | > 25 μM | – | – | – | 125 µM |
